Results: paper PMC7044277 (Nature Communications, 2020)
“And” between values parts separate entries of the source, which are not always exact repeats. Equal entries are not always repeated.

What was measured:
Type in all cases: cell-based
320 non-olfactory GPCRs [1] = molecular target: 320 non-olfactory GPCRs (Homo sapiens, UniProt P21728)
320 non-olfactory GPCRs [2] = molecular target: T1, 320 non-olfactory GPCRs (Homo sapiens, UniProt P25100)
T1 construct: expressed in transfected cells; host or cells: HTLA cells
T1 sequence (P25100 whole entry): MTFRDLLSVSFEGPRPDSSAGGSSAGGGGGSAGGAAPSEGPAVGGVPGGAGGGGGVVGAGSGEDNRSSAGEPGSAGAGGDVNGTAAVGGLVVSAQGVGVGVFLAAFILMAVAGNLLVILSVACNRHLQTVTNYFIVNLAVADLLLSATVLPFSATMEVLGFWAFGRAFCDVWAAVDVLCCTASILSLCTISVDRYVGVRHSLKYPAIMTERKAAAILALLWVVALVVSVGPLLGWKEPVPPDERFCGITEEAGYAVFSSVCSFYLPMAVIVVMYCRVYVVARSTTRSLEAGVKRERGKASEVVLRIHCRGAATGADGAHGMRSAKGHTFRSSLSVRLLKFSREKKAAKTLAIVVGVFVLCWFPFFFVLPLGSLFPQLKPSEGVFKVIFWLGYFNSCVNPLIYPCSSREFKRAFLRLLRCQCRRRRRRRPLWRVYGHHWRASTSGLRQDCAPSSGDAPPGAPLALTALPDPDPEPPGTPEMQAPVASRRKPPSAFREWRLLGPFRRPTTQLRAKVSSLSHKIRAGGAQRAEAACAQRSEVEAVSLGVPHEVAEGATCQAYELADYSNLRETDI

320 non-olfactory GPCRs [3] = molecular target: T2, 320 non-olfactory GPCRs (Homo sapiens, UniProt Q02643)
T2 construct: expressed in transfected cells; host or cells: HTLA cells
T2 sequence (Q02643 23-423): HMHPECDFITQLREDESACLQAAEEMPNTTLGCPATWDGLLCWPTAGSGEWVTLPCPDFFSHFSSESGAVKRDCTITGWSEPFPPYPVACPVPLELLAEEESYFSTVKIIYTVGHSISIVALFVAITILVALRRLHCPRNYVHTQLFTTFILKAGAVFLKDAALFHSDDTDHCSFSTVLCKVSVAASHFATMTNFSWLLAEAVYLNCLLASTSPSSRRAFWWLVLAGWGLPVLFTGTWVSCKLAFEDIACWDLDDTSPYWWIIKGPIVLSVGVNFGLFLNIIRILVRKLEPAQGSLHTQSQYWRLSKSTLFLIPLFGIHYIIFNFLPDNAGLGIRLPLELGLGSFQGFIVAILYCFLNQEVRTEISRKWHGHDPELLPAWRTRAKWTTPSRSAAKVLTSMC

320 non-olfactory GPCRs [4] = molecular target: T3, 320 non-olfactory GPCRs (Homo sapiens, UniProt Q9H1Y3); settings: receptor OPN3; replicate values, Fig_4g
T3 construct: expressed in transfected cells; host or cells: HTLA cells
T3 sequence (Q9H1Y3 whole entry): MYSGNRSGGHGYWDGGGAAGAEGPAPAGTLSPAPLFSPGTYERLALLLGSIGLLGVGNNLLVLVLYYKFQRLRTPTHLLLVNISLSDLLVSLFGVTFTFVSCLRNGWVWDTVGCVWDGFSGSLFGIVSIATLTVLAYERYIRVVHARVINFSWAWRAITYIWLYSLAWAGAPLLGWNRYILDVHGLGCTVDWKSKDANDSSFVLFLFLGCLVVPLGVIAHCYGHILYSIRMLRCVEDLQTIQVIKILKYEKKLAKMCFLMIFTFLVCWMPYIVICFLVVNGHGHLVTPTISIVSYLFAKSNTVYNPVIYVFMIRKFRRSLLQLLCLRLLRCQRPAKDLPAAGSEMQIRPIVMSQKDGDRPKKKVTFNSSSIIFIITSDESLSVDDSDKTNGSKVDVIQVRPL
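Wherever Fold of Basal is given: compound tested at 1 µM final concentration.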
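Wherever GPCRome agonism screen response is given: fold over basal response of each receptor without drug.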

320 non-olfactory GPCRs (Homo sapiens, UniProt P21728), sequence (P21728 whole entry): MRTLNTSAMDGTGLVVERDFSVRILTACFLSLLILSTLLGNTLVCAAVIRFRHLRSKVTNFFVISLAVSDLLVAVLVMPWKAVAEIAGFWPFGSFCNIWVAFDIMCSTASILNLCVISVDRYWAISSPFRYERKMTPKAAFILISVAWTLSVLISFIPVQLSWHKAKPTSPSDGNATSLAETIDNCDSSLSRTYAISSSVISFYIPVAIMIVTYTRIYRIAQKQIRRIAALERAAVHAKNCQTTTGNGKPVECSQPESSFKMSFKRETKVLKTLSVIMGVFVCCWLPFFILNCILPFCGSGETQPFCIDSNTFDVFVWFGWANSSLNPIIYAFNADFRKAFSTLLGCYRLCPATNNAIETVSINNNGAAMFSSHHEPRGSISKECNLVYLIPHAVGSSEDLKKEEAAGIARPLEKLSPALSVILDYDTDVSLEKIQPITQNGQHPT

CCOc1cccc2cc(C(C)NCC3(O)CCCCC3)oc12 (stereo not shown) [O4LE6]
Fold of Basal (320 non-olfactory GPCRs [1]): 0.7632 and 1.021 and 0.953 and 0.8141
Fold of Basal (320 non-olfactory GPCRs [2]): 1.061 and 0.9787 and 0.8777 and 0.6895
Fold of Basal (320 non-olfactory GPCRs [3]): 1.559 and 1.547 and 1.735 and 1.472
GPCRome agonism screen response (320 non-olfactory GPCRs [4]): 1.462 and 1.944 and 1.753 and 1.142
